Laboratory results: EP0205025A1, “Fluorine derivatives of vitamin D3 and cell differentiation-inducing agents containing the same as an active ingredient” (SUMITOMO PHARMACEUTICALS COMPANY, LIMITED, priority 1985, dated 1986)

Columns and labels:
[1] = tested on: HL-60 cells; test: Proliferation-suppression rate of HL-60 cells (Coulter counter); type: cell-based; details: Homo sapiens, 96 h, HL-60, 4 days, relative to untreated group; for inhibition at 0.01 µM: 1x10^-8 M (column of 1α, 25-(OH)2D3 printed 1x10^8); for inhibition at 0.003 µM: 3x10^-9 M
Experimental: An HL-60 cell fluid adjusted to a concentration of 5 x 10^4 cells/ml was incorporated with each of the agents to be tested and cultivated in a carbon dioxide incubator at 37°C for 4 days. After the cultivation, the number of cells was measured by means of a Coulter counter. The percentage of the number thus measured relative to the number of cells in an untreated group was calculated, from which the proliferation-suppression rate was obtained.

[2] = tested on: HL-60 cells; test: Binding property of monoclonal antibodies (MAS 072 anti-human monocyte, OKT 9 anti-human transferrin receptor) to treated HL-60 cells, indirect fluorescent antibody technique, FACS; type: cell-based; details: for Binding property of monoclonal antibody MAS072 (%): anti-human monocyte antibody, control 17.0; for Binding property of monoclonal antibody OKT9 (%): anti-human transferrin receptor antibody, control 95.7
Experimental: HL-60 cells wre treated with the agent as described above, and then stained by indirect fluorescent antibody technique using monoclonal antibodies [MAS 072 (Sera-lab) anti-human monocyte and OKT 9 (Ortho-mune) anti-human transferrin receptor] and a fluorescent antibody [FITC-anti-mouse IgG (Miles)], and the resulting fluorescence intensity was determined by FACS to obtain the binding property of the monoclonal antibody in terms of a percentage.

[3] = tested on: HL-60 cells; test: NBT reduction of HL-60 cells after treatment (TPA stimulation, microscopy); type: cell-based, human; details: HL-60 treated 4 days, percentage of NBT reduction-positive cells of 200 cells
Experimental: Thereafter, the cells were smeared onto a slide glass, subjected to giemsa staining, and the coloration of cells was examined under a microscope. The number of colored cells was measured for 200 cells, and the results were expressed in terms of the percentage of NBT reduction- positive cells.

[4] = 1x10^-8 M (column of 1α, 25-(OH)2D3 printed 1x10^8)

Question: Which results are given for C=C1C(=CC=C2CCCC3(C)C2CCC3C(C)CCCC(C)(C)O)CC(O)CC1O (stereo not drawn) [1α, 25-(OH)2D3, 1α, 25-dihydroxyvitamin D3]?
Answer: inhibition at 0.01 µM [1]: 66%; inhibition at 0.003 µM [1]: 47.2%; Binding property of monoclonal antibody MAS072 (%) [2, 4]: 55.8%; Binding property of monoclonal antibody OKT9 (%) [2, 4]: 22.6%; Binding property of monoclonal antibody OKT9 (%) ([2]; 3x10^-9 M): 61.5%; NBT reduction rate (%) [3, 4]: 87.0%; NBT reduction rate (%) ([3]; 3x10^-9 M): 48.5%

Question: For C=C1C(=CC=C2CCCC3(C)C2CCC3C(C)CCCC(C(F)(F)F)C(F)(F)F)CC(O)CC1O (centres unmarked) [Compound A, 26,26,26,27,27,27-hexafluoro-la-hydroxyvitamin D3], which inhibition at 0.01 µM [1] is on record?
Answer: 74.9%

Question: What about the inhibition at 0.003 µM [1] of the same molecule?
Answer: 58.5%

Question: And the “Binding property of monoclonal antibody MAS072 (%)” value [2, 4]?
Answer: 79.0%

Question: What about the “Binding property of monoclonal antibody OKT9 (%)” value [2, 4] of the same molecule?
Answer: 11.1%

Question: And the “Binding property of monoclonal antibody OKT9 (%)” value ([2]; 3x10^-9 M)?
Answer: 16.7%

Question: And the “NBT reduction rate (%)” value [3, 4]?
Answer: 91.5%

Question: And the “NBT reduction rate (%)” value ([3]; 3x10^-9 M)?
Answer: 77.0%
